Earlier results as cited in patent US20100183720A1, “Hetero-assembled hydrogels” (The Board of Trustees of the Leland Stanford Junior …, priority 2008, published 2010).
Each block holds one substance with its values, some of them ahead of it.

Columns and labels:
[1] = molecular target: T1, Human YAP65 (Yes kinase-associated protein) WW Domain (Homo sapiens, UniProt P46937); settings: read-out: Dissociation constant, Kd (Binding constant)
T1 construct: WW Domain

PABC Domain = molecular target: T2, PABC Domain (Homo sapiens, UniProt P11940); settings: SPR; read-out: Dissociation constant, Kd (SPR Kd)
T2 construct: PABC Domain

SH3 Domain = molecular target: T3, SH3 Domain (Homo sapiens, UniProt P27986); settings: read-out: Dissociation constant, Kd
T3 construct: SH3 Domain

[2] = molecular target: T4, SH3 Domain cSRC (1 SH3 and 1 SH2) (Gallus gallus, UniProt P00523); settings: read-out: Dissociation constant, Kd
T4 construct: SH3 Domain

[3] = molecular target: T5, SH3 Domain PI3K (1 SH3 and 2 SH2) (Homo sapiens, UniProt P27986); settings: read-out: Dissociation constant, Kd
T5 construct: SH3 Domain

Human Tsg101 UEV domain = molecular target: T6, Human Tsg101 UEV domain (Homo sapiens, UniProt Q99816); settings: read-out: Dissociation constant, Kd (Binding constant)
T6 construct: Human Tsg101 UEV domain
T6 sequence (Q99816 2-145 limits assumed): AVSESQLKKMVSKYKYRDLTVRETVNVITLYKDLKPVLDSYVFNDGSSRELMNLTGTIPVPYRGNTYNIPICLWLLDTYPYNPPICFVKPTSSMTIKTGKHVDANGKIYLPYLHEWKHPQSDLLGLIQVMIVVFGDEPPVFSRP

[4] = molecular target: model group I polyproline peptide; settings: monomeric units of WW domain bound to model group I polyproline peptide; read-out: apparent dissociation constant

T5 sequence (P27986 3-79 limits assumed): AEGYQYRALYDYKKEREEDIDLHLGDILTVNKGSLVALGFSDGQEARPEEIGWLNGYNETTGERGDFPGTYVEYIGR
T3 sequence (P27986 3-79 limits assumed): as above
T1 sequence (P46937 171-204 limits assumed): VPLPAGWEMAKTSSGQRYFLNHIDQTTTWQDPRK
T2 sequence (P11940 542-619 limits assumed): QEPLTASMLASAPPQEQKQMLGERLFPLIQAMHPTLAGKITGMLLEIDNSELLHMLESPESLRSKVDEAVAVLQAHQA

Substance: AFSRQLNVNAKPFVPNVHA
Kd (PABC Domain): 3.9 µM

Substance: RPLPPRPSK
Kd (SH3 Domain): 9.1 ± 0.6 µM

Substance: AFSRQLNVNAKPFVPNVHAAEFVPSFLR
Kd (PABC Domain): 1.3 µM

Substance: VVKSNLNPNAKEFVPGVKYGNI
Kd (PABC Domain): 0.16 µM

Substance: LNKPPLPKR
Kd [3]: 13 µM

Substance: RKAPPRPSK
Kd (SH3 Domain): 37 ± 1 µM

Substance: RKLPPRPAF
Kd [3]: 11 µM

Substance: AKLPPRPSK
Kd (SH3 Domain): 98 ± 0.2 µM

Substance: LVVKSNLNPNAKEF
Kd (PABC Domain): 260 µM

Substance: RKLPARPSK
Kd (SH3 Domain): 16.5 ± 0.1 µM

Substance: RKLPPRPSK
Kd (SH3 Domain): 9.1 ± 0.6 µM | Kd [3]: 9.1 µM | Kd [2]: 73 µM

Substance: RALPPLPRY
Kd [3]: 17 µM

Substance: HIV-1 p6 protein: binding partner of Human Tsg101 UEV domain (LQSRPEPTAPPEESFRSGVETTTPPQKQEPIDKELYPLTSLRSLFGNDPSSQ; p6-gag; UniProt P04591 449-500, looked up)
Kd (Human Tsg101 UEV domain): 27 ± 5 µM

Substance: RKLPPAPSK
Kd (SH3 Domain): 29 ± 2 µM

Substance: RALPPRPSK
Kd (SH3 Domain): 9.7 ± 0.2 µM

Substance: Nedd4.3: wild-type WW domain sequence (Protein Data Bank 1I5H), monomeric unit (PLPPGWEERTHTDGRVFFINHNIKKTQWEDPRMQ; Natural WW domain also called Nedd4.3 Kanelis, V., Rotin D. & Forman-Kay, JD (2001) Solution structure of a Nedd4 WW domain-ENaC peptide complex, Nat Struct Biol 8 407-12.)
Kd [4]: 11.2 ± 1.2 µM

Substance: RKLPPRP
Kd (SH3 Domain): 12.8 ± 0.6 µM

Substance: SPPPAYTV
Kd [1]: 63 ± 17 µM

Substance: RYLPPRPMY
Kd [3]: 13 µM

Substance: RELPPIPVF
Kd [2]: 9.6 µM

Further lines, results first:

Kd [1]: 52 ± 6 µM
Substance: GTPPPPYTVG

Kd [1]: 53 ± 17 µM
Substance: SAPPPYTV

Kd [2]: 13 µM
Substance: PYHPPLPRR

Kd (SH3 Domain): 53 ± 6 µM
Substance: RKLPPRASK

Kd [1]: 47 ± 6 µM
Substance: SPPPYTV

Kd (PABC Domain): 2.3 µM
Substance: VLMSKLSVNAPEFYPSGYSSSY

Kd (PABC Domain): 3 µM
Substance: LVVKSNLPNAKEFVP

Kd (PABC Domain): 3.1 µM
Substance: AKPFVPNVHAAEFVPSFLR

Kd [1]: 118 ± 17 µM
Substance: SPPPPFTV

Kd [2]: 12 µM
Substance: RPLPPTPKY

Kd [2]: 7.8 µM
Substance: RELPPLPRF

Kd (PABC Domain): 0.19 µM
Substance: SNLNPNAKEFVPGVKYG

Kd (SH3 Domain): 140 ± 10 µM
Substance: RKLAPRPSK
